The numbers were not newly measured in patent US11026933B2, “Compositions and methods for treatment of cancer” (Children's Hospital Medical Center, priority 2016, dated 2021), which cites them from elsewhere.

One data set deals with proteasome. The conditions noted are these: Halasi and Gartel, 2013.
The target of data set [1] is T1, FOXM1 (Homo sapiens, UniProt Q08050).
T1 sequence (Q08050 1-763): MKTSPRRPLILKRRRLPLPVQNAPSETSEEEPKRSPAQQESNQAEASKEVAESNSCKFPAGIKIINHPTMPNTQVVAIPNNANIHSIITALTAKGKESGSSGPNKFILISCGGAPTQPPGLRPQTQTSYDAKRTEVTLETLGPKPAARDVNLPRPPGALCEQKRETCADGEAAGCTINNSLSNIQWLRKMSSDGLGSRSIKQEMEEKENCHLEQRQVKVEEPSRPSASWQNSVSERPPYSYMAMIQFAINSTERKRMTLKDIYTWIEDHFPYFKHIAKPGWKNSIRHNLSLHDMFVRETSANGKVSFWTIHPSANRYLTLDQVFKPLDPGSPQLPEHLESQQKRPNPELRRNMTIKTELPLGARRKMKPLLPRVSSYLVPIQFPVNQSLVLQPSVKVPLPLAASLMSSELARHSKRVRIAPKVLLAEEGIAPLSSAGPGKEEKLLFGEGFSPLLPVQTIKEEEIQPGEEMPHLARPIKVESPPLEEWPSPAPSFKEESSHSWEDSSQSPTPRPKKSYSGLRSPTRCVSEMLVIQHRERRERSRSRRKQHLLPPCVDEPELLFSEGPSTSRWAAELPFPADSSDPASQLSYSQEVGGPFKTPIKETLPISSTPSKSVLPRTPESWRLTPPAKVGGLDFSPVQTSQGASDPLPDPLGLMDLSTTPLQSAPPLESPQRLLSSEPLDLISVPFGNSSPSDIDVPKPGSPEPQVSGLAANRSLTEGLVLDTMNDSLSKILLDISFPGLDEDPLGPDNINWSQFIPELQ
The conditions noted are these: Halasi and Gartel, 2013.

Data set [2] concerns the target T1, FOXM1. The conditions noted are these: Halasi and Gartel, 2013. The source holds these as a separate data set.
The target in data set [3] is T1, FOXM1. The conditions noted are these: Gormally et al., 2014.

Regarding `C=C(NC(=O)C(=C)NC(=O)c1csc(C2=N[C@@H]3c4csc(n4)[C@H]4NC(=O)c5csc(n5)[C@H]([C@](C)(O)[C@@H](C)O)NC(=O)[C@H]5CSC(=N5)/C(=C/C)NC(=O)[C@H]([C@@H](C)O)NC(=O)c5csc(n5)[C@]3(CC2)NC(=O)[C@H](C)NC(=O)C(=C)NC(=O)C(=C)NC(=O)[C@H](C(C)C)N[C@@H]2C=Cc3c([C@H](C)O)cc(nc3[C@H]2O)C(=O)O[C@@H]4C)n1)C(N)=O` [Siomycin A], the proteasome inhibition result in the data set with proteasome is recorded as “found to be proteasome inhibitors”. Moreover, the “inhibition of FOXM1 in mouse tumor models” value at FOXM1 [1] is “inhibited FOXM1”. For the same molecule, on FOXM1 [2], the “inhibition of FOXM1 in cultured tumor cells” value is given as “inhibited FOXM1”.

As for `C=C(NC(=O)C(=C)NC(=O)c1csc(C2=N[C@@H]3c4csc(n4)[C@H]4NC(=O)c5csc(n5)[C@H]([C@](C)(O)[C@@H](C)O)NC(=O)[C@H]5CSC(=N5)/C(=C/C)NC(=O)[C@H]([C@@H](C)O)NC(=O)c5csc(n5)[C@]3(CC2)NC(=O)[C@H](C)NC(=O)C(=C)NC(=O)[C@H](C)NC(=O)[C@H]([C@@H](C)CC)N[C@@H]2C=Cc3c([C@H](C)O)cc(nc3[C@H]2O)C(=O)O[C@@H]4C)n1)C(N)=O` [thiostrepton], the proteasome inhibition entry in the data set with proteasome is reported as “found to be proteasome inhibitors”. Besides, on FOXM1 [1], the “inhibition of FOXM1 in mouse tumor models” value is given as “inhibited FOXM1”. Further, on FOXM1 [2], the “inhibition of FOXM1 in cultured tumor cells” value was “inhibited FOXM1”.

Turning to `Nc1c(C(=O)Nc2ccc(F)cc2)sc2nc(-c3cccs3)cc(C(F)(F)F)c12` [FDI-6], at FOXM1 [3], the “FOXM1 binding to DNA” value is recorded as “blocked FOXM1 binding to DNA” and the “binding to FOXM1 protein” value was “directly bound to FOXM1 protein”.
